Tested on: TDP-43 aggregation in PC12 cells stably expressing GFP-tagged mutant TDP-43 (TDP-43^Q33IK::eGFP)
Test: In vitro efficacy assay: inhibition of TDP-43 inclusions, concentration-response, fluorescence microscopy
Assay type: cell-based
Settings: Rattus norvegicus, PC-12, PC12 cells, 1 hour pre-treatment, 15 μM sodium arsenite for 23 hours, 10-point dose response curve
Procedure: Exemplary compounds of the invention were evaluated for efficacy in inhibiting TDP-43 inclusions using a concentration-response assay. Briefly, PC12 cells stably expressing a GFP-tagged mutant form of TDP-43 (TDP-43^Q33IK::eGFP) were pre-treated for 1 hour with exemplary compounds and stressed with 15 μM sodium arsenite for 23 hours to induce TDP-43 aggregation. The inhibitory effect on TDP-43 aggregation was measured using fluorescence microscopy. The ratio of cells with TDP-43 aggregates was calculated based on the total number of cells with detectable GFP expression. In the table, “A” indicates an IC50 of less than 100 nM, “B” indicates an IC50 range from 100 nM to 500 nM; “C” indicates an IC50 range from 500 nM to 2 μM; and “D” indicates an IC50 greater than 2 μM.

Molecule `CCN(C(=O)c1cc2ccccc2[nH]1)[C@H]1COC[C@H](NCc2ccccc2)C1` [Compound 301, N-((3R,5R)-5-(benzylamino)tetrahydro-2H-pyran-3-yl)-N-ethyl-1H-indole-2-carboxamide] has an IC50 greater than 2000 nM.
`O=C(c1cc2ccccc2[nH]1)N(CC(F)(F)F)[C@H]1COC[C@@H](NCc2ccccc2)C1` [Compound 302] showed an IC50 of 100 to 500 nM.
Work on `O=C(c1cc2ccccc2[nH]1)N(CC(F)(F)F)[C@H]1COC[C@H](NCc2ccccc2)C1` [Compound 303] yielded an IC50 greater than 2000 nM.
With `C#Cc1ccc(C(=O)c2cccc(CN[C@@H]3CCC[C@H](N(CC)C(=O)c4cc5ccccc5[nH]4)C3)c2)cc1` [Compound 312, N-ethyl-N-((1S,3R)-3-((3-(4-ethynylbenzoyl)benzyl)-amino)cyclohexyl)-1H-indole-2-carboxamide] the IC50 was 500 to 2000 nM.
With `CCN(C(=O)c1cc2ccccc2[nH]1)[C@@H]1C[C@H](NCc2ccccc2)CS(=O)(=O)C1` [Compound 313, N-((3R,5S)-5-(benzylamino)-1,1-dioxidotetrahydro-2H-thiopyran-3-yl)-N-ethyl-1H-indole-2-carboxamide] the IC50 was greater than 2000 nM.
`CCN(C(=O)c1cc2ccccc2[nH]1)[C@@H]1C[C@@H](NCc2ccccc2)CS(=O)(=O)C1` [Compound 314, N-((3R,5R)-5-(benzylamino)-1,1-dioxidotetrahydro-2H-thiopyran-3-yl)-N-ethyl-1H-indole-2-carboxamide] gave an IC50 greater than 2000 nM.
`CCN(C(=O)c1cc2ccccc2[nH]1)[C@H]1CCC[C@@H](NCc2cccc(N=[N+]=[N-])c2)C1` [Compound 316, N-((1S,3R)-3-((3-azidobenzyl)amino)cyclohexyl)-N-ethyl-1H-indole-2-carboxamide] gave an IC50 of less than 100 nM.
For `CCN(C(=O)c1cc2ccccc2[nH]1)[C@H]1CCC[C@@H](NCc2ccc(N=[N+]=[N-])cc2)C1` [Compound 317], the IC50 was less than 100 nM.
For `CCN(C(=O)c1cc2ccccc2[nH]1)[C@H]1CCC[C@@H](NC2(c3ccccc3)COC2)C1` [Compound 318, N-ethyl-N-((1S,3R)-3-((3-phenyloxetan-3-yl)amino)cyclohexyl)-1H-indole-2-carboxamide], the IC50 was 500 to 2000 nM.
`CCN(C(=O)c1nc2ccccc2[nH]1)[C@H]1CCC[C@@H](NCc2ccccc2)C1` [Compound 400, N-((1S,3R)-3-(benzylamino)cyclohexyl)-N-ethyl-1H-benzo[d]imidazole-2-carboxamide] was tested, and the IC50 was less than 100 nM.
`CCN(C(=O)c1cc2cnccc2[nH]1)[C@H]1CCC[C@@H](NCc2ccccc2)C1` [Compound 401] gave an IC50 of 100 to 500 nM.
`CCN(C(=O)c1[nH]c2ccccc2c1C)[C@H]1CCC[C@@H](NCc2ccccc2)C1` [Compound 402] was tested, and the IC50 was less than 100 nM.
In the case of `CCN(C(=O)c1cc2ccncc2[nH]1)[C@H]1CCC[C@@H](NCc2ccccc2)C1` [Compound 403], the IC50 is reported as 100 to 500 nM.
In the case of `CCN(C(=O)c1ccccn1)[C@H]1CCC[C@@H](NCc2ccccc2)C1` [Compound 404], the IC50 is reported as greater than 2000 nM.
`CCN(C(=O)c1ccccc1)[C@H]1CCC[C@@H](NCc2ccccc2)C1` [Compound 405] showed an IC50 greater than 2000 nM.
Molecule `CCN(C(=O)c1cc2ncccc2[nH]1)[C@H]1CCC[C@@H](NCc2cccc(N=[N+]=[N-])c2)C1` [Compound 406, N-((1S,3R)-3-((3-azidobenzyl)amino)cyclohexyl)-N-ethyl-1H-pyrrolo[3,2-b]pyridine-2-carboxamide] has an IC50 of less than 100 nM.
For `CCN(C(=O)c1cc2ncccc2[nH]1)[C@H]1CCC[C@@H](NCc2ccc(N=[N+]=[N-])cc2)C1` [Compound 407], the IC50 was less than 100 nM.
With `CCN(C(=O)c1cc2ncccc2[nH]1)[C@H]1CCC[C@@H](NC(C)(C)c2ccc(OC)cc2)C1` [Compound 408] the IC50 was less than 100 nM.
`CCN(C(=O)c1cc2ncccc2[nH]1)[C@H]1CCC[C@H](NC(C)(C)c2ccc(OC)cc2)C1` [Compound 409] was tested, and the IC50 was 500 to 2000 nM.
`CCN(C(=O)c1cc2ncccc2[nH]1)[C@H]1CCC[C@@H](NC(C)(C)c2ccc(F)cc2)C1` [Compound 410] was tested, and the IC50 was less than 100 nM.
Work on `CCN(C(=O)c1cc2ncccc2[nH]1)[C@H]1CCC[C@H](NC(C)(C)c2ccccc2)C1` [Compound 411] yielded an IC50 of less than 100 nM.
In the case of `CCN(C(=O)c1cc2ccccc2[nH]1)[C@H]1CCC[C@@H](N[C@H](c2ccccc2)C(F)(F)F)C1` [Compound 414], the IC50 is reported as 500 to 2000 nM.
For `CCN(C(=O)c1cc2ccccc2[nH]1)[C@H]1CCC[C@@H](N[C@@H](c2ccccc2)C(F)(F)F)C1` [Compound 415], the IC50 was greater than 2000 nM.
In the case of `CCN(C(=O)c1cc2ncccc2[nH]1)[C@H]1CCC[C@@H](NC2(c3ccccc3)CC2)C1` [Compound 418, N-ethyl-N-((1S,3R)-3-((1-phenylcyclopropyl)amino)cyclohexyl)-1H-pyrrolo[3,2-b]pyridine-2-carboxamide], the IC50 is reported as 100 to 500 nM.
Molecule `CCN(C(=O)c1cc2ccccc2[nH]1)[C@H]1CCC[C@@H](NC2(c3ccccc3)CC2)C1` [Compound 419] has an IC50 of 100 to 500 nM.
`CCN(C(=O)c1cc2ncccc2[nH]1)[C@H]1CCC[C@H](NC2(c3ccccc3)CC2)C1` [Compound 420] gave an IC50 of 500 to 2000 nM.
Work on `CCN(C(=O)c1cc2ccccc2[nH]1)[C@H]1CCC[C@H](NC2(c3ccccc3)CC2)C1` [Compound 421] yielded an IC50 greater than 2000 nM.
`O=C(c1cc2ncccc2[nH]1)N(CC(F)(F)F)[C@H]1CCC[C@@H](NCc2cccc(F)c2)C1` [Compound 422, N-((1S,3R)-3-((3-fluorobenzyl)amino)cyclohexyl)-N-(2,2,2-trifluoroethyl)-1H-pyrrolo[3,2-b]pyridine-2-carboxamide] showed an IC50 of less than 100 nM.
Molecule `O=C(c1cc2ncccc2[nH]1)N(CC(F)(F)F)[C@H]1CCC[C@@H](NCc2ccc(F)cc2)C1` [Compound 423] has an IC50 of less than 100 nM.
Work on `COc1ccc(C(C)(C)N[C@@H]2CCC[C@H](N(CC(F)(F)F)C(=O)c3cc4ncccc4[nH]3)C2)cc1` [Compound 424, N-((1S,3R)-3-((2-(4-methoxyphenyl)propan-2-yl)amino)cyclohexyl)-N-(2,2,2-trifluoroethyl)-1H-pyrrolo[3,2-b]pyridine-2-carboxamide] yielded an IC50 of less than 100 nM.
`C#CCCC1(CCOc2ccc(CN[C@@H]3CCC[C@H](N(CC)C(=O)c4cc5ccccc5[nH]4)C3)cc2)N=N1` [Compound 425, N-((1S,3R)-3-((4-(2-(3-(but-3-yn-1-yl)-3H-diazirin-3-yl)ethoxy)benzyl)amino)cyclohexyl)-N-ethyl-1H-indole-2-carboxamide] was tested, and the IC50 was 100 to 500 nM.
In the case of `C#CCCC1(CCOc2cccc(CN[C@@H]3CCC[C@H](N(CC)C(=O)c4cc5ccccc5[nH]4)C3)c2)N=N1` [Compound 426], the IC50 is reported as less than 100 nM.
`CCN(C(=O)c1cc2ccccc2[nH]1)[C@H]1CCC[C@@H](NCc2cccc(O)c2)C1` [Compound 427] was tested, and the IC50 was less than 100 nM.
With `CCN(C(=O)c1cc2ccccc2[nH]1)[C@H]1CCC[C@@H](NCc2ccc(O)cc2)C1` [Compound 428] the IC50 was less than 100 nM.
With `CCN(C(=O)c1cc2ccccc2[nH]1)[C@H]1CCC[C@@H](NCc2ccc(OC(F)(F)F)cc2)C1` [Compound 429] the IC50 was less than 100 nM.
`CCN(C(=O)c1cc2ccccc2[nH]1)[C@H]1CCC[C@@H](NCc2cccc(OC(F)(F)F)c2)C1` [Compound 430] showed an IC50 of less than 100 nM.
With `CCN(C(=O)c1cc2ccccc2[nH]1)[C@H]1CCC[C@@H](NCc2cccc(S(C)(=O)=O)c2)C1` [Compound 431] the IC50 was less than 100 nM.
For `CCN(C(=O)c1cc2ccccc2[nH]1)[C@H]1CCC[C@@H](NCc2ccc(S(C)(=O)=O)cc2)C1` [Compound 432], the IC50 was 100 to 500 nM.
`CCN(C(=O)c1cc2ccccc2[nH]1)[C@H]1CCC[C@@H](NCc2cc3cc(F)ccc3o2)C1` [Compound 433] was tested, and the IC50 was less than 100 nM.
`CCN(C(=O)c1cc2ncccc2[nH]1)[C@H]1CCC[C@@H](NCc2ccnc(O)c2)C1` [Compound 434] gave an IC50 greater than 2000 nM.
With `CCN(C(=O)c1cc2ncccc2[nH]1)[C@H]1CCC[C@@H](NCc2cc(C3CC3)no2)C1` [Compound 435] the IC50 was less than 100 nM.
Molecule `CCN(C(=O)c1cc2ncccc2[nH]1)[C@H]1CCC[C@@H](NCc2cc(C3CC3)on2)C1` [Compound 436] has an IC50 of less than 100 nM.
`CCN(C(=O)c1cc2ncccc2[nH]1)[C@H]1CCC[C@@H](NCc2cc(C)no2)C1` [Compound 437] gave an IC50 of less than 100 nM.
Work on `CCN(C(=O)c1cc2ncccc2[nH]1)[C@H]1CCC[C@@H](NCc2cnoc2)C1` [Compound 438] yielded an IC50 greater than 2000 nM.
`CCN(C(=O)c1cc2ncccc2[nH]1)[C@H]1CCC[C@@H](NCc2nnc(C)s2)C1` [Compound 439] was tested, and the IC50 was greater than 2000 nM.
For `CCN(C(=O)c1cc2ncccc2[nH]1)[C@H]1CCC[C@@H](NCc2ccnc(OC)c2)C1` [Compound 440], the IC50 was less than 100 nM.
`CCN(C(=O)c1cc2ncccc2[nH]1)[C@H]1CCC[C@@H](NCc2ccc3ncoc3c2)C1` [Compound 441] showed an IC50 of less than 100 nM.
Molecule `CCN(C(=O)c1cc2ncccc2[nH]1)[C@H]1CCC[C@@H](NCc2ccc3nsnc3c2)C1` [Compound 442] has an IC50 of less than 100 nM.
`CCN(C(=O)c1cc2ncccc2[nH]1)[C@H]1CCC[C@@H](NCc2ccc3ocnc3c2)C1` [Compound 443] showed an IC50 of less than 100 nM.
`CCN(C(=O)c1cc2ncccc2[nH]1)[C@H]1CCC[C@@H](NCc2cc3ccccc3o2)C1` [Compound 444] was tested, and the IC50 was less than 100 nM.
For `CCN(C(=O)c1cc2ncccc2[nH]1)[C@H]1CCC[C@@H](NCc2cc(C)on2)C1` [Compound 445], the IC50 was 100 to 500 nM.
For `CCN(C(=O)c1cc2ncccc2[nH]1)[C@H]1CCC[C@@H](NCc2nccs2)C1` [Compound 446], the IC50 was 500 to 2000 nM.
In the case of `CCN(C(=O)c1cc2ncccc2[nH]1)[C@H]1CCC[C@@H](NCc2c[nH]cn2)C1` [Compound 447], the IC50 is reported as 100 to 500 nM.
Molecule `CCN(C(=O)c1cc2ncccc2[nH]1)[C@H]1CCC[C@@H](NCc2cnn(C)c2)C1` [Compound 448] has an IC50 of less than 100 nM.
`CCN(C(=O)c1cc2ccccc2[nH]1)[C@H]1CCC[C@@H](NCc2oc3ccccc3c2C)C1` [Compound 449] was tested, and the IC50 was less than 100 nM.
`CCN(C(=O)c1cc2ccccc2[nH]1)[C@H]1CCC[C@@H](NCc2cc3ccccc3s2)C1` [Compound 450] showed an IC50 of less than 100 nM.
